Converted amounts (≈) assume the structure as drawn.
What was measured:
[1] = High temperature stability test; format: physicochemical; details: 60° C.; for Purity Change: sealed glass bottle
Text: (§1) In this Experimental Example, high temperature, high humidity tests were used to study the chemical stability of the crystal form according to the invention.
(§2) Purity test: HPLC method (Chinese Pharmacopoeia 2015, Volume IV, general principles 0512)
(§3) Chromatographic column: octadecyl silane bonded silica gel as filler
(§4) Mobile phase A: 0.02 mol/L phosphate buffer (pH 3.0)-methanol-acetonitrile
(§5) Mobile phase B: methanol-acetonitrile-water
(§6) Detection wavelength: 215 nm.
(§7) Elution condition: gradient elution
The Crystal Form D of the compound of formula I was placed in a sealed and clean glass bottle and placed in 60° C. constant temperature oven. Samples were taken 10 day/30 day respectively for impurity content determination.
(§8) Note: Purity Change=(Difference of sample purity at day 0 and sample purity after a certain period)/Sample purity at day 0×100%.

[2] = Pharmacokinetic study in monkeys; format: in vivo; details: administered to monkeys
[3] = Thermogravimetric Analysis (TGA); format: physicochemical; details: heating rate 10K/min, N2 purge, 35-500° C.
Procedure: “Thermogravimetric Analysis (TGA)” is a common method for determining the thermal stability of compounds. The TGA curve can be measured, for example, on a Mettler Toledo TGA1 instrument. The error of TGA may be within about ±0.5 wt %. The term “substantially identical” means that such error variations are considered. Exemplary test conditions are: temperature range is 35-500° C., heating rate is 10 K/min, and purge gas is nitrogen (99.99%).
TGA is collected on Mettler Toledo TGA1 Thermogravimetric Analyzer, purge gas is N2 (99.99%), 100 ml/min; heating rate: 10K/min; temperature range: 35-500° C.
In the curve, the sample began to decompose at about 230° C. and no weight loss was found before decomposition.

[4] = Long-term and accelerated stability test; format: physicochemical
Text: as §2, §3, §4, §5, §6, §7
The Crystal Form D of the compound of formula I was packed with inner bag (pharmaceutical low density polyethylene bag) and outer bag (pharmaceutical polyester/aluminum/polyethylene composite film bag), placed under the following stability testing conditions for stability tests.

[5] = Pharmacokinetic study in mice; format: in vivo; details: administered to mice
[6] = Solubility test (HPLC external standard method); format: physicochemical
Procedure: In this Experimental Example, the solubility of two crystal form in different pH of simulated human gastric juice were tested to study the solubility of the crystal forms.
Solubility test: HPLC external standard method
as §3
Mobile phase: phosphate buffer (pH3.5):methanol:acetonitrile=2:9:9 (volume ratio)
Detection wavelength: 215 nm
Excess amount of Crystal Form D and Crystal Form Y were placed in tubes with plug, to which were added 10 ml of water (purified water), hydrochloric acid solution of pH 1.2, hydrochloric acid solution of pH 2.0, acetate buffer of pH 4.0, phosphate buffers of pH 4.5, 5.0, 6.8, 8.0, respectively, and vibrated on 37° C. water bath, then filtered. The subsequent filtrate was subjected to HPLC assay.
The preparations of various pH buffers can be referred to “Guideline for Dissolution Test of Normal Oral Solid Formulation” issued by Center for Drug Evaluation of China Food and Drug Administration for dissolution medium, and are detailed as follows:
The hydrochloric acid solution of pH 1.2 is prepared by diluting 7.65 ml of hydrochloric acid with water to 1000 ml and mixing well.
The hydrochloric acid solution of pH 2.0 is prepared by diluting 1.17 ml of hydrochloric acid with water to 1000 ml and mixing well.
The acetate buffer of pH 4.0 is prepared by diluting mixture of 1.22 g of sodium acetate with 20.5 ml of 2 mol/L acetic acid solution with water to 1000 ml and mixing well. The 2 mol/L acetic acid solution is prepared by diluting 114 mL of glacial acetic acid with water to 1000 ml.
The phosphate buffers of pH 4.5, 5.0, 6.8, 8.0 are prepared by adjusting pH of 0.2 mol/L monopotassium phosphate solution with 0.2 mol/L sodium hydroxide solution to pH 4.5, 5.0, 6.8, 8.0, respectively. The 0.2 mol/L monopotassium phosphate solution is prepared by dissolving 27.22 g of monopotassium phosphate in water and diluting to 1000 mL. The 0.2 mol/L sodium hydroxide solution is prepared by dissolving 8.00 g of sodium hydroxide in water and diluting to 1000 mL.

[7] = Pharmacokinetic study in dogs; format: in vivo; details: administered to dogs
[8] = High humidity stability test; format: physicochemical; details: RH 92.5%; for Weight loss on drying / Purity Change: room temperature; for Purity Change: open dish
Text: as §1, §2, §3, §4, §5, §6, §7
Weight loss on drying assay: Chinese Pharmacopoeia 2015, Volume IV, general principles 0831
as §8
The Crystal Form D of the compound of formula I was spread in open petri dish with thickness ≤5 mm, at room temperature, in constant temperature incubator of relative humidity (RH) 92.5%. Samples were taken 10 day/30 day for impurity content determination.

[9] = high temperature condition, up to 30 day
[10] = hydrochloric acid solution pH 1.2, 37° C.
[11] = hydrochloric acid solution pH 2.0, 37° C.
[12] = phosphate buffer pH 4.5, 37° C.
[13] = phosphate buffer pH 5.0, 37° C.
[14] = phosphate buffer pH 6.8, 37° C.
[15] = phosphate buffer pH 8.0, 37° C.
[16] = high humidity condition, up to 30 day

For CCCCCCO[C@@H](C)c1cccc(-c2csc(NC(=O)c3cc(Cl)c(/C=C(\C)C(=O)O)c(Cl)c3)n2)c1OC [Crystal Form D, 4-phenylthiazole derivative], the “Purity Change” value ([1]; 10 day) was 0.04%, the “Purity Change” value ([1]; 30 day) was 0.03% and the “Change in crystal form (XRPD)” value [1, 9] was “no change in crystal form”. The “Change in purity (in words)” value [1, 9] was “did not show obvious change in purity”, the Pharmacokinetic properties [2] was “good pharmacokinetic properties” and the “Temperature at which the sample began to decompose (TGA)” value [3] was “about 230 °C”. The “Change in purity or crystal form (in words)” value ([4]; 6 month or more under long-term and accelerated conditions) was “no change in purity or crystal form”, the Chemical purity ([4]; Accelerated (40° C. ± 2° C./RH75% ± 5%), 0 day) was 99.83% and the Chemical purity ([4]; Accelerated (40° C. ± 2° C./RH75% ± 5%), 6 month) was 99.83%. The Chemical purity ([4]; Long-term (25° C. ± 2° C./RH60% ± 5%), 0 day) was 99.83%, the Chemical purity ([4]; Long-term (25° C. ± 2° C./RH60% ± 5%), 6 month) was 99.83% and the Chemical purity ([4]; Long-term (30° C. ± 2° C./RH65% ± 5%), 0 day) was 99.83%. The Chemical purity ([4]; Long-term (30° C. ± 2° C./RH65% ± 5%), 6 month) was 99.83%, the Pharmacokinetic properties [5] was “good pharmacokinetic properties” and the Solubility ([6]; acetate buffer pH 4.0, 37° C.) was 10.6478 µg/mL (≈ 18 µM). The Solubility [6, 10] was 19.1353 µg/mL (≈ 32.3 µM), the Solubility [6, 11] was 14.5872 µg/mL (≈ 24.7 µM) and the Solubility [6, 12] was 11.4829 µg/mL (≈ 19.4 µM). It also gave a Solubility [6, 13] of 13.8229 µg/mL (≈ 23.4 µM), a Solubility [6, 14] of 36.0017 µg/mL (≈ 60.9 µM) and a Solubility [6, 15] of 110.5589 µg/mL (≈ 187 µM). For the same compound, the “Solubility compared with Crystal Form Y” value ([6]; simulated human gastric juice with various pH) was “significantly better than that of Crystal Form Y”, the Solubility ([6]; water (purified water), 37° C.) was 41.3607 µg/mL (≈ 69.9 µM) and the Pharmacokinetic properties [7] was “good pharmacokinetic properties”. The “Weight loss on drying” value ([8]; 0 day) was 0.31%, the “Weight loss on drying” value ([8]; 10 day) was 0.35% and the “Weight loss on drying” value ([8]; 30 day) was 0.36%. For the same compound, the “Purity Change” value ([8]; 10 day) was 0.05%, the “Purity Change” value ([8]; 30 day) was 0% and the “Change in crystal form (XRPD)” value [8, 16] was “no change in crystal form”. The “Change in purity (in words)” value [8, 16] was “did not show obvious change in purity” and the “Change in weight loss on drying (in words)” value [8, 16] was “little change in weight loss on drying”.

In the case of CCCCCCO[C@@H](C)c1cccc(-c2csc(NC(=O)c3cc(Cl)c(/C=C(\C)C(=O)O)c(Cl)c3)n2)c1OC [Crystal Form Y, 4-phenylthiazole derivative], the Solubility ([6]; acetate buffer pH 4.0, 37° C.) was 0.4327 µg/mL (≈ 0.731 µM), the Solubility [6, 10] was 0.7616 µg/mL (≈ 1.29 µM) and the Solubility [6, 11] was 0.4915 µg/mL (≈ 0.831 µM). The Solubility [6, 12] was 0.5623 µg/mL (≈ 0.951 µM), the Solubility [6, 13] was 0.6993 µg/mL (≈ 1.18 µM) and the Solubility [6, 14] was 3.2046 µg/mL (≈ 5.42 µM). For the same compound, the Solubility [6, 15] was 43.0713 µg/mL (≈ 72.8 µM) and the Solubility ([6]; water (purified water), 37° C.) was 5.2325 µg/mL (≈ 8.85 µM).

— US11174234B2, “Crystal form of 4-phenylthiazole derivative and preparation method thereof” (SICHUAN KELUN PHARMACEUTICAL RESEARCH INSTITUTE CO., LTD., priority 2018, dated 2021)
